Key:
[1] = Solubility of the crystals in solvents; type: physicochemical
[2] = system: PEG-modified esterase (carboxyl esterase); experiment: Acetylation of lankacidin C to lankacidin A by PEG-modified esterase with different acetyl group donors (Lineweaver-Burk analysis); type: biochemical, Streptomyces rochei var. volubilis; details: acetyl group donor as substrate, 11 mM lankacidin C in methyl isobutyl ketone, 37° C., least-squares method from Table 2; for Vmax: lankacidin A formed
Experimental: 2 ml of a solution of 11 mM concentrations of lankacidin C and 50 mM concentrations of acetic anhydride in methyl isobutyl ketone was put in a 20 ml test tube with stopper, to which was added 0.3 ml of a solution of PEG-modified esterase in 0.2M tris(hydroxymethyl) aminomethane-maleic acid buffer (pH 7.0), the concentration of PEG-modified esterase of which was 12 mg per ml, followed by shaking with shaking apparatus (80 spm) at 37° C.
By high-performance liquid chromatography (hereinafter referred to briefly as HPLC method) as described below, the amount of lankacidin A formed was measured at the time shown in Table 1.
By changing the concentration of acetyl group donor to those shown of Table 2, with the reaction time being 20 min., the same procedure as in Example 1 was conducted.
By using Lineweaver-Burk's equation of the formula 2 [Biochemical Dictionary, first edition, page 1314 (1984), Tokyokagakudozin Ltd.] derived by modifying the Michaelis-Menten equation of formula 1 [Op Cit. page 1239], the reaction using acetic anhydride as an acetyl group donor was compared with that using ethyl acetate as acetyl group donor. [formula]
By putting values of the concentration of acetyl group donor shown in Table 2 in the place of [S]o, and values of the amount of lankacidin A formed shown in Table 2 in the place of .nu., values of Km and Vmax were calculated by means of the least-squares method.

## CCC(=O)OC1C=CC2OC2CC(C)OC(=O)CC(OC(=O)CC)C(OC)C(OC2OC(C)C(OC3CC(C)(O)C(OC(=O)CC)C(C)O3)C(N(C)C)C2O)C(CC=O)CC1C (centres unmarked) [9-propionyl maridomycin III]
[1]; acetone
  Solubility in acetone: readily soluble
[1]; chloroform
  Solubility in chloroform: relatively soluble
[1]; ethanol
  Solubility in ethanol: readily soluble
[1]; methanol
  Solubility in methanol: readily soluble
[1]; water
  Solubility in water: hardly soluble

## CC(=O)OC(C)=O [Acetic anhydride, acetic anhydride]
[2]; reaction time 20 min.
  Km: 7.69 mM
[2]
  Vmax: 6.59 mM/20 min.

## CCOC(C)=O [Ethyl acetate, ethyl acetate]
[2]
  Vmax: 5.40 mM/20 min.
